“And” between values parts separate entries of the source, which are not always exact repeats. Equal entries are not always repeated. Inconclusive results and toxic doses are left out. How the source made its calls: active means survival T/C of 150% or more; inactive means T/C below 125% in these data.
Tested on: BDF1 mice, B16 melanoma ip, median survival T/C
Assay: NCI In Vivo Anticancer Drug Screen. Data for tumor model B16 Melanoma (intraperitoneal) in B6D2F1 (BDF1) mice
Conditions: endpoint: median survival time, higher = longer survival
How it was run: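 The ratio T/C compares compound-treated mice with vehicle-treated controls, using survival or tumor size as the endpoint in a transplantable tumor model.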

[1] = dose: 100.0 mg/kg/injection, schedule: Q04DX003 (ip), vehicle: saline with Tween-80
[2] = dose: 25.0 mg/kg/injection, schedule: Q01DX009 (ip), vehicle: Klucel (hydroxypropylcellulose) (HPC)
[3] = dose: 25.0 mg/kg/injection, schedule: Q01DX009 (ip), vehicle: saline with Tween-80

Measured: T/C

C[C@]12CC[C@H]3[C@@H](CCC4=C[C@@H](OC5OCC(OC6OC(CO)C(O)C(O)C6O)C(O)C5O)CC[C@@]43C=O)[C@@]1(O)CCC2C1=CC(=O)OC1 (stereo partly drawn)
inactive: dose: 1.25 mg/kg/injection, schedule: Q01DX009 (ip), vehicle: saline 100 % of control | dose: 2.5 mg/kg/injection, schedule: Q01DX009 (ip), vehicle: saline 105 % of control | dose: 5.0 mg/kg/injection, schedule: Q01DX009 (ip), vehicle: saline 89 % of control

CC#CCOCC1CN(c2ccccc2)C(=O)O1 (stereo not drawn)
inactive: dose: 25.0 mg/kg/injection, schedule: Q01DX009 (ip), vehicle: saline 102 % of control | dose: 50.0 mg/kg/injection, schedule: Q01DX009 (ip), vehicle: saline 97 % of control | dose: 100.0 mg/kg/injection, schedule: Q01DX009 (ip), vehicle: saline 102 % of control | [1] 97 % of control | dose: 200.0 mg/kg/injection, schedule: Q01DX009 (ip), vehicle: saline 100 % of control | dose: 200.0 mg/kg/injection, schedule: Q04DX003 (ip), vehicle: saline with Tween-80 94 % of control | dose: 400.0 mg/kg/injection, schedule: Q01DX009 (ip), vehicle: saline 97 % of control | dose: 400.0 mg/kg/injection, schedule: Q04DX003 (ip), vehicle: saline with Tween-80 94 % of control

O=c1cc[nH]c(=O)[nH]1
inactive: dose: 32.0 mg/kg/injection, schedule: Q01DX009 (ip), vehicle: Klucel (hydroxypropylcellulose) (HPC) 99 % of control and 100 % of control | dose: 32.0 mg/kg/injection, schedule: Q01DX009 (ip), vehicle: saline with Tween-80 93 % of control | dose: 64.0 mg/kg/injection, schedule: Q01DX009 (ip), vehicle: Klucel (hydroxypropylcellulose) (HPC) 98 % of control and 106 % of control | dose: 64.0 mg/kg/injection, schedule: Q01DX009 (ip), vehicle: saline with Tween-80 93 % of control | dose: 128.0 mg/kg/injection, schedule: Q01DX009 (ip), vehicle: Klucel (hydroxypropylcellulose) (HPC) 101 % of control and 106 % of control | dose: 128.0 mg/kg/injection, schedule: Q01DX009 (ip), vehicle: saline with Tween-80 98 % of control | dose: 256.0 mg/kg/injection, schedule: Q01DX009 (ip), vehicle: Klucel (hydroxypropylcellulose) (HPC) 100 % of control and 102 % of control | dose: 256.0 mg/kg/injection, schedule: Q01DX009 (ip), vehicle: saline with Tween-80 90 % of control | dose: 512.0 mg/kg/injection, schedule: Q01DX009 (ip), vehicle: Klucel (hydroxypropylcellulose) (HPC) 102 % of control and 105 % of control | dose: 512.0 mg/kg/injection, schedule: Q01DX009 (ip), vehicle: saline with Tween-80 92 % of control

O=c1[nH]c2ccccc2nc1CBr
inactive: dose: 0.38 mg/kg/injection, schedule: Q01DX009 (ip), vehicle: saline with Tween-80 104 % of control | dose: 0.75 mg/kg/injection, schedule: Q01DX009 (ip), vehicle: saline with Tween-80 100 % of control | dose: 1.5 mg/kg/injection, schedule: Q01DX009 (ip), vehicle: saline with Tween-80 104 % of control | dose: 3.0 mg/kg/injection, schedule: Q01DX009 (ip), vehicle: saline with Tween-80 92 % of control

CC[C@@]1(O)C(=O)OCc2c1cc1n(c2=O)Cc2cc3cc(O)ccc3nc2-1
active: dose: 0.2 mg/kg/injection, schedule: Q01DX009 (ip), vehicle: other 157 % of control | dose: 0.39 mg/kg/injection, schedule: Q01DX009 (ip), vehicle: other 151 % of control | dose: 0.79 mg/kg/injection, schedule: Q01DX009 (ip), vehicle: other 179 % of control | dose: 1.57 mg/kg/injection, schedule: Q01DX009 (ip), vehicle: other 184 % of control

CC(=O)CC(=O)N1CCC(C)CC1
inactive: dose: 100.0 mg/kg/injection, schedule: Q01DX009 (ip), vehicle: Klucel (hydroxypropylcellulose) (HPC) 110 % of control | dose: 200.0 mg/kg/injection, schedule: Q01DX009 (ip), vehicle: Klucel (hydroxypropylcellulose) (HPC) 112 % of control | dose: 400.0 mg/kg/injection, schedule: Q01DX009 (ip), vehicle: Klucel (hydroxypropylcellulose) (HPC) 115 % of control

C[Se]c1ncnc2c1c(C#N)cn2C1OC(CO)C(O)C1O (stereo not drawn)
inactive: dose: 3.12 mg/kg/injection, schedule: Q01DX009 (ip), vehicle: Klucel (hydroxypropylcellulose) (HPC) 92 % of control | dose: 12.5 mg/kg/injection, schedule: Q01DX009 (ip), vehicle: Klucel (hydroxypropylcellulose) (HPC) 97 % of control | [2] 90 % of control

CC12NC(=O)NC1(C)NC(=O)N2 (stereo not drawn)
inactive: [1] 100 % of control

COc1cc(-c2ccc(Nc3ccccc3C(=O)O)c(OC)c2)ccc1N
inactive: [3] 105 % of control | dose: 50.0 mg/kg/injection, schedule: Q01DX009 (ip), vehicle: saline with Tween-80 104 % of control

CCN(CC)Cc1cc2[nH]c3c4ccc(Cl)cc4ncc3c2cc1OC
inactive: dose: 6.25 mg/kg/injection, schedule: Q01DX009 (ip), vehicle: saline with Tween-80 95 % of control | dose: 12.5 mg/kg/injection, schedule: Q01DX009 (ip), vehicle: saline with Tween-80 98 % of control | [3] 98 % of control

NC1(C(=O)O)CSSC1
inactive: [2] 95 % of control | dose: 50.0 mg/kg/injection, schedule: Q01DX009 (ip), vehicle: Klucel (hydroxypropylcellulose) (HPC) 100 % of control

Reference: PubChem BioAssay AID192 (DTP/NCI, 2004)
